The values below come from patent US9790169B2, “IDO inhibitors” (BRISTOL-MYERS SQUIBB COMPANY, priority 2015, dated 2017).

This experiment deals with human IDO1 (Homo sapiens, UniProt P14902). Briefly: Assessment of human IDO-1 inhibitory activity in HEK cells (human IDO1/HEK293 cells, kynurenine read-out with Ehrlich reagent, absorbance 490 nm). Format: cell-based. The arrangement: expressed in transfected cells. The note with it: HEK Human IDO-1 cellular assay. In a few lines:
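HEK293 cells stably expressing human IDO1 were seeded at 10,000 per well in phenol red-free RPMI with 10% FBS, treated with compound for 20 h at 37 °C. Kynurenine was measured after TCA (0.2% final) and 30 min at 50 °C, using Ehrlich reagent, A490. IC50 normalised to DMSO (0%) and 500 nM reference standard (100%).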

Each structure is given as a SMILES string. pIC50: −log10 of the molar value.

Sequence of human IDO1 (P14902 whole entry): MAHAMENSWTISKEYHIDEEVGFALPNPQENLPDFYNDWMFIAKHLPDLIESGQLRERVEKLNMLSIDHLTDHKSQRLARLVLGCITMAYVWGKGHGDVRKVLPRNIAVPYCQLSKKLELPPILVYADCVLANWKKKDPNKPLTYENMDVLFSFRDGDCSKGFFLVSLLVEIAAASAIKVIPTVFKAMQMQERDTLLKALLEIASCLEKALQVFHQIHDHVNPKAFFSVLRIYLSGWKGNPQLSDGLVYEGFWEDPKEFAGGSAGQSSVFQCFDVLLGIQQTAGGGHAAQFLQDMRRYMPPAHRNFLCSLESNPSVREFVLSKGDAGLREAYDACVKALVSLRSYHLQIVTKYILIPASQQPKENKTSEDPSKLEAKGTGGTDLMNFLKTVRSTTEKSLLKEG

A word on the pIC50: it is the negative decadic logarithm of the IC50, by convention in mol/L. For `CCN(c1ccc(C(C)CC(=O)O)cc1Nc1cnc(C)nc1)C1CCOCC1` (single isomer, unassigned) [Example 623, 3-(4-(ethyl(tetrahydro-2H-pyran-4-yl)amino)-3-((2-methylpyrimidin-5-yl)amino)phenyl)butanoic acid], the pIC50 is above 7.30.

As for `CCN(c1ccc(C(C)CC(=O)O)cc1Nc1cnc(OC)nc1)C1CCOCC1` (single isomer, unassigned) [Example 633, 3-(4-(ethyl(tetrahydro-2H-pyran-4-yl)amino)-3-((2-methoxypyrimidin-5-yl)amino)phenyl)butanoic acid], the pIC50 is above 7.30.

With `CCN(c1ccc(C(C)CC(=O)O)cc1Nc1cnc(C)nc1)C1CCOCC1` (single isomer, unassigned) [Example 636, 3-(4-(ethyl(tetrahydro-2H-pyran-4-yl)amino)-3-((2-methylpyrimidin-5-yl)amino)phenyl)butanoic acid], the pIC50 was below 7.30.

`CCN(c1ccc(C(C)CC(=O)O)cc1NC(=O)Nc1ccc(Cl)cc1F)C1CCOCC1` (single isomer, unassigned) [Example 637 E1, 3-(3-(3-(4-Chloro-2-fluorophenyl)ureido)-4-(ethyl(tetrahydro-2H-pyran-4-yl)amino)phenyl)butanoic acid]: the pIC50 was above 8.30.

Consider `CCN(c1ccc(C(C)CC(=O)O)cc1NC(=O)Nc1ccccc1F)C1CCOCC1` (single isomer, unassigned) [Example 638, 3-(4-(ethyl(tetrahydro-2H-pyran-4-yl)amino)-3-(3-(2-fluorophenyl)ureido)phenyl) butanoic acid], for which the pIC50 was above 7.30.

As for `CCN(c1ccc(C(C)CC(=O)O)cc1NC(=O)Nc1ccc(C)cc1)C1CCOCC1` (single isomer, unassigned) [Example 639, 3-(4-(ethyl(tetrahydro-2H-pyran-4-yl)amino)-3-(3-(p-tolyl)ureido)phenyl)butanoic acid], the pIC50 is above 7.30.

Regarding `CCN(c1ccc(C(C)CC(=O)O)cc1NC(=O)Nc1ccccc1F)C1CCOCC1` (single isomer, unassigned) [Example 640, 3-(4-(ethyl(tetrahydro-2H-pyran-4-yl)amino)-3-(3-(2-fluorophenyl)ureido)phenyl) butanoic acid], the pIC50 is below 7.30.

As for `CCN(c1ccc(C(C)CC(=O)O)cc1NC(=O)Nc1ccc(C)cc1)C1CCOCC1` (single isomer, unassigned) [Example 641, 3-(4-(ethyl(tetrahydro-2H-pyran-4-yl)amino)-3-(3-(p-tolyl)ureido)phenyl)butanoic acid], the pIC50 is below 7.30.

With `CCC(CC(=O)O)c1ccc(N(CC(C)C)C2CCCCC2)c(Nc2ccc(Cl)c(OC(F)F)c2)c1` (single isomer, unassigned) [Example 642], the pIC50 is above 8.30.

Turning to `CCC(CC(=O)O)c1ccc(N(CC(C)C)C2CCCCC2)c(Nc2ccc(Cl)c(OCC(F)F)c2)c1` (single isomer, unassigned) [Example 643, 3-(3-((4-chloro-3-(2,2-difluoroethoxy)phenyl)amino)-4-(cyclohexyl (isobutyl)amino)phenyl) pentanoic acid], the pIC50 is above 8.30.

With `CCC(CC(=O)O)c1ccc(N(CC(C)C)C2CCCCC2)c(Nc2ccc(Cl)c(OCC(F)(F)F)c2)c1` (single isomer, unassigned) [Example 644, 3-(3-((4-chloro-3-(2,2,2-trifluoroethoxy)phenyl)amino)-4-(cyclohexyl (isobutyl)amino)phenyl) pentanoic acid], the pIC50 was above 7.30.

Take `CCC(CC(=O)O)c1ccc(N(CC(C)C)C2CCCCC2)c(Nc2ccc(Cl)c(OCC3CC3)c2)c1` (single isomer, unassigned) [Example 645, 3-(3-((4-chloro-3-(cyclopropylmethoxy)phenyl)amino)-4-(cyclohexyl (isobutyl)amino)phenyl) pentanoic acid]: the pIC50 is above 7.30.

Regarding `CCCOc1ncc(Nc2cc(C(CC)CC(=O)O)ccc2N(CC(C)C)C2CCCCC2)cn1` (single isomer, unassigned) [Example 647, 3-(4-(cyclohexyl(isobutyl)amino)-3-((2-propoxypyrimidin-5-yl)amino)phenyl)pentanoic acid], the pIC50 is above 8.30.

As for `CCC(CC(=O)O)c1ccc(N(CC(C)C)C2CCCCC2)c(Nc2cnc(OC(C)C)nc2)c1` (single isomer, unassigned) [Example 648, 3-(4-(cyclohexyl(isobutyl)amino)-3-((2-isopropoxypyrimidin-5-yl)amino)phenyl)pentanoic acid], the pIC50 was above 8.30.

For the molecule `CCC(CC(=O)O)c1ccc(N(CC(C)C)C2CCCCC2)c(Nc2ccc(Cl)c(OC(F)F)c2)c1` (single isomer, unassigned) [Example 649], the pIC50 was above 7.30.

As to `CCCN(CC1CC1)c1ccc(C(CC)CC(=O)O)cc1Nc1ccc(Cl)cc1` (single isomer, unassigned) [Example 656 E1, 3-(3-((4-Chlorophenyl)amino)-4-((cyclopropylmethyl)(propyl)amino)phenyl)pentanoic acid], the pIC50 was above 8.30.

As for `CCCN(CC1CC1)c1ccc(C(CC)CC(=O)O)cc1Nc1cnc(OCC)nc1` (single isomer, unassigned) [Example 657, 3-(4-((cyclopropylmethyl) (propyl)amino)-3-((2-ethoxypyrimidin-5-yl)amino)phenyl)pentanoic acid], the pIC50 is above 7.30.

In the case of `CCCN(CC1CC1)c1ccc(C(CC)CC(=O)O)cc1Nc1ccc2nc(C)sc2c1` (single isomer, unassigned) [Example 658, 3-(4-((cyclopropylmethyl) (propyl)amino)-3-((2-methylbenzo[d]thiazol-6-yl)amino)phenyl)pentanoic acid], the pIC50 was above 7.30.

For `CCCN(CC1CC1)c1ccc(C(CC)CC(=O)O)cc1Nc1ccc2c(c1)OC(F)(F)O2` (single isomer, unassigned) [Example 659, 3-(4-((cyclopropylmethyl) (propyl)amino)-3-((2,2-difluorobenzo[d][1,3]dioxol-5-yl)amino)phenyl)pentanoic acid], the pIC50 was above 7.30.

Consider `CCCN(CC1CC1)c1ccc(C(CC)CC(=O)O)cc1Nc1cnc(OCC)nc1` (single isomer, unassigned) [Example 660, 3-(4-((cyclopropylmethyl)(propyl)amino)-3-((2-ethoxypyrimidin-5-yl)amino)phenyl)pentanoic acid], for which the pIC50 is above 8.30.

As for `CCCN(CC1CC1)c1ccc(C(CC)CC(=O)O)cc1Nc1ccc2nc(C)sc2c1` (single isomer, unassigned) [Example 661, 3-(4-((cyclopropylmethyl)(propyl)amino)-3-((2-methylbenzo[d]thiazol-6-yl)amino)phenyl) pentanoic acid], the pIC50 is below 7.30.

As for `CCCN(CC1CC1)c1ccc(C(CC)CC(=O)O)cc1Nc1ccc2c(c1)OC(F)(F)O2` (single isomer, unassigned) [Example 662, 3-(4-((cyclopropylmethyl)(propyl)amino)-3-((2,2-difluorobenzo[d] [1,3]dioxol-5-yl)amino)phenyl) pentanoic acid], the pIC50 was above 8.30.

Take `CCC(CC(=O)O)c1ccc(N2C[C@@H]3C[C@H]2CN3Cc2ccccc2)c(Nc2ccc(C)cc2)c1` (single isomer, unassigned) [Example 666 E1]: the pIC50 is above 8.30.

In the case of `COCC(CC(=O)O)c1ccc(N(CC2CC2)C2CCOCC2)c(NC(=O)Nc2ccc(C)cc2)c1` (single isomer, unassigned) [Example 676, 3-(4-((Cyclopropylmethyl)(tetrahydro-2H-pyran-4-yl)amino)-3-(3-(p-tolyl)ureido)phenyl)-4-methoxybutanoic acid], the pIC50 was below 7.30.

In the case of `COCC(CC(=O)O)c1ccc(N(CC2CC2)C2CCOCC2)c(NC(=O)Nc2ccc(Cl)cc2F)c1` (single isomer, unassigned) [Example 678, 3-(3-(3-(4-Chloro-2-fluorophenyl)ureido)-4-((cyclopropylmethyl)(tetrahydro-2H-pyran-4-yl)amino)phenyl)-4-methoxybutanoic acid], the pIC50 was below 7.30.

Turning to `COCC(CC(=O)O)c1ccc(N(CC2CC2)C2CCOCC2)c(Nc2ccc(Cl)cc2)c1` (single isomer, unassigned) [Example 679, 3-(3-((4-Chlorophenyl)amino)-4-((cyclopropylmethyl)(tetrahydro-2H-pyran-4-yl)amino)phenyl)-4-methoxybutanoic acid], the pIC50 is above 8.30.

For the molecule `COCC(CC(=O)O)c1ccc(N(CC2CC2)C2CCOCC2)c(Nc2ccc3nc(C)sc3c2)c1` (single isomer, unassigned) [Example 680, 3-(4-((cyclopropylmethyl) (tetrahydro-2H-pyran-4-yl)amino)-3-((2-methylbenzo[d]thiazol-6-yl)amino)phenyl)-4-methoxybutanoic acid], the negative-log IC50 (pIC50) was above 7.30.

Take `COCC(CC(=O)O)c1ccc(N(CC2CC2)C2CCOCC2)c(Nc2ccc(Cl)c(OCC(F)(F)F)c2)c1` (single isomer, unassigned) [Example 682, 3-(3-((4-chloro-3-(2,2,2-trifluoroethoxy)phenyl)amino)-4-((cyclopropylmethyl) (tetrahydro-2H-pyran-4-yl)amino)phenyl)-4-methoxybutanoic acid]: the pIC50 is below 7.30.

Regarding `COCC(CC(=O)O)c1ccc(N(CC2CC2)C2CCOCC2)c(Nc2ccc(Cl)c(OCC3CC3)c2)c1` (single isomer, unassigned) [Example 683, 3-(3-((4-chloro-3-(cyclopropylmethoxy)phenyl)amino)-4-((cyclopropylmethyl) (tetrahydro-2H-pyran-4-yl)amino)phenyl)-4-methoxybutanoic acid], the pIC50 is below 7.30.

As for `COCC(CC(=O)O)c1ccc(N(CC2CC2)C2CCOCC2)c(Nc2ccc(Cl)c(OCC(F)F)c2)c1` (single isomer, unassigned) [Example 684, 3-(3-((4-chloro-3-(2,2-difluoroethoxy)phenyl)amino)-4-((cyclopropylmethyl) (tetrahydro-2H-pyran-4-yl)amino)phenyl)-4-methoxybutanoic acid], the pIC50 was above 7.30.
